Patent US5217971A, “Thiazole compounds and pharmaceutical composition comprising the same” (Fujisawa Pharmaceutical Co., Ltd., priority 1989, dated 1993)

Experiments:
platelet aggregation = assay: Platelet aggregation ex vivo (1), arachidonic acid-induced, PRP after oral administration; type: in vivo, male Hartley guinea-pigs; settings: guinea-pig, oral 1.0 mg/kg, 6 hours after administration, arachidonic acid final 50 μM
Protocol: Male Hartley guinea-pigs weighing about 300 g were used after 24 hours fasting. Six hours after oral administration of the test compound or vehicle of test compound (control), blood was collected into a tube containing 0.1 vol. of 3.8% sodium citrate and prepared platelet rich plasma (PRP).
To the 250 μl of PRP, 5 μl of arachidonic acid (final 50 μM) was added as an aggregation inducer. Aggregation was measured by using an aggregometer (NKK HEMA-TRACER 1).

rats = assay: Acute toxicity in rats by peroral administration; type: in vivo
stomachs of the rats = assay: Effect on stomach of rats; type: in vivo; settings: 100 mg/kg, oral
thrombin = assay: Assay for thrombin activity (S-2238 substrate); type: biochemical; settings: concentration 1.0 × 10^-4 M, pH 8.0, 37° C.
Protocol: Thrombin activity was measured using the synthetic peptide substrate (S-2238, Kabivitrum).
After 900 μl of 0.1 M Tris-HCl buffer (pH 8.0), 100 μl of drug solution and 10 μl of 3U/ml thrombin were incubated at 37° C. for 5 min, 2 ml of 100 μM S-2238 was added.
The rate of increase in absorbance at 405 nm due to hydrolysis of S-2238 was measured with a spectrophotometer.
Inhibition (%) of drug was calculated as follows:
Inhibition (%)=(S-B)/A×100
A:Abs/min in the absence of drug
B:Abs/min in the presence of drug

Structure (SMILES)	Inhibition (%) of platelet aggregation (platelet aggregation) [%]	acute toxicity, deaths at 100 mg/kg (rats)	lesion in stomachs of rats (stomachs of the rats)	Inhibition (%) of thrombin activity (thrombin) [%]
COc1ccc(-c2nc(C(=O)N3CCN(C)CC3)sc2-c2ccc(OC)cc2)cc1.Cl [Example 1, 4,5-bis(4-methoxyphenyl)-2-(4methylpiperazin-1-yl)carbonylthiazole hydrochloride]	100	the dead at dose of 100 mg/kg could not be observed	No lesion was observed	
COc1ccc(-c2nc(C(=O)NC(=N)N)sc2-c2ccc(OC)cc2)cc1 [Example 5, 4,5-bis(4-methoxyphenyl)-2-guanidinocarbonylthiazole]				92.2
